Data as given in US20100298141A1, “SUBSTITUTED PYRIDINE N-OXIDE HERBICIDES” (E. I. DU PONT DE NEMOURS AND COMPANY, priority 2007, published 2010).

Key:
morningglory = assay: Test A pre-/postemergence greenhouse test; format: in vivo, Ipomoea spp.; settings: for Plant response rating, Morningglory: 0 to 100 scale where 0 is no effect and 100 is complete control; for Morningglory plant response rating: 0 to 100 scale
How it was run: (§1)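 Test compounds in non-phytotoxic solvent with surfactant were applied as a preemergence soil spray to seeded loam/sand pots and, concurrently, postemergence to plants at 2–10 cm, one- to two-leaf stage. About ten days in greenhouse, then injury visually rated against untreated controls.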

redroot pigweed = assay: Test A pre-/postemergence greenhouse test; format: in vivo, Amaranthus retroflexus; settings: for Plant response rating, Pigweed: 0 to 100 scale where 0 is no effect and 100 is complete control; for Pigweed plant response rating: 0 to 100 scale
How it was run: as §1

blackgrass = assay: Test C pre-/postemergence test; format: in vivo, Alopecurus myosuroides
Excerpt: (§2) Seeds of plant species selected from blackgrass (Alopecurus myosuroides), downy brome (Bromus tectorum), green foxtail (Setaria viridis), Italian ryegrass (Lolium multiflorum), wheat (Triticum aestivum), wild oat (Avena fatua), catchweed bedstraw (Galium aparine), Russian thistle (Salsola kali), […] (Cynodon dactylon), Surinam grass (Brachiaria decumbens), cocklebur (Xanthium strumarium), corn (Zea mays), crabgrass (Digitaria sanguinalis), woolly cupgrass (Eriochloa villosa), giant foxtail (Setaria faberii), Goosegrass (Eleusin indica), johnsongrass (Sorghum halepense), kochia (Kochia scoparia), lambsquarters (Chenopodium album), morningglory (Ipomoea coccinea), eastern black nightshade (Solanum ptycanthum), yellow nutsedge (Cyperus esculentus), pigweed (Amaranthus retroflexus), common ragweed (Ambrosia elation), soybean (Glycine max), common (oilseed) sunflower (Helianthus annuus), and velvetleaf (Abutilon theophrasti) were planted and treated preemergence with test chemicals formulated in a non-phytotoxic solvent mixture which included a surfactant. At the same time, plants selected from these crop and weed species and also winter barley (Hordeum vulgare), canarygrass (Phalaris minor), and chickweed (Stellaria media) were treated with postemergence applications of some of the test chemicals formulated in the same manner. Plants ranged in height from 2 to 18 cm (1- to 4-leaf stage) for postemergence treatments. […] At time of treatment, test pots were flooded to 3 cm above the soil surface, treated by application of test compounds directly to the paddy water, and then maintained at that water depth for the duration of the test. […] A dash (-) response means no test result.

downy brome = assay: Test C pre-/postemergence test; format: in vivo, Bromus tectorum
Excerpt: as §2

green foxtail = assay: Test C pre-/postemergence test; format: in vivo, Setaria viridis
Excerpt: as §2

wild oat = assay: Test C pre-/postemergence test; format: in vivo, Avena fatua
Excerpt: as §2

bermudagrass = assay: Test C pre-/postemergence test; format: in vivo, Cynodon dactylon
Excerpt: as §2

cocklebur = assay: Test C pre-/postemergence test; format: in vivo, Xanthium strumarium; settings: for Plant response rating, Cocklebur: scale 0 to 100, 0 no effect, 100 complete control
Excerpt: as §2

woolly cupgrass = assay: Test C pre-/postemergence test; format: in vivo, Eriochloa villosa
Excerpt: as §2

kochia = assay: Test C pre-/postemergence test; format: in vivo, Kochia scoparia
Excerpt: as §2

lambsquarters = assay: Test C pre-/postemergence test; format: in vivo, Chenopodium album; settings: Postemergence; for Plant response rating, Lambsquarters: scale 0 to 100, 0 no effect, 100 complete control
Excerpt: as §2

yellow nutsedge = assay: Test C pre-/postemergence test; format: in vivo, Cyperus esculentus
Excerpt: as §2

soybean = assay: Test C pre-/postemergence test; format: in vivo, Glycine max
Excerpt: as §2

rice = assay: Test C flooded paddy test; format: in vivo, Oryza sativa; settings: Flood
How it was run: (§3)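 Ratings were visual and made relative to untreated controls after 13 to 15 greenhouse days.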

duck salad = assay: Test C flooded paddy test; format: in vivo, Heteranthera limosa; settings: Flood
How it was run: as §3

[1] = Postemergence, 500 g ai/ha, 0 is no effect, 100 is complete control
[2] = Preemergence, 125 g ai/ha, 0 no effect, 100 complete control
[3] = 62 g ai/ha, Preemergence, scale 0 to 100
[4] = 125 g ai/ha, preemergence, scale 0 (no effect) to 100 (complete control)
[5] = Postemergence, 62 g ai/ha, scale 0 to 100, 0 no effect, 100 complete control
[6] = Postemergence, 250 g ai/ha, scale 0 to 100, 0 no effect, 100 complete control
[7] = Preemergence, 31 g ai/ha, scale 0 to 100 (0 no effect, 100 complete control)
[8] = preemergence, 250 g ai/ha, scale 0 (no effect) to 100 (complete control)
[9] = Postemergence, 125 g ai/ha, scale 0 to 100, 0 no effect, 100 complete control
[10] = 62 g ai/ha, scale 0 to 100 (0 no effect, 100 complete control)
[11] = 250 g ai/ha, scale 0 to 100, 0 no effect, 100 complete control, 13 to 15 days

CCn1nc(C(F)(F)F)c(C[S+]([O-])c2cccc[n+]2[O-])c1OCC(F)(F)F (racemic) [Compound 65]
Plant response rating, Morningglory (morningglory; Postemergence, 125 g ai/ha): 60 | Morningglory plant response rating (morningglory; [1]): 90 | Morningglory plant response rating (morningglory; [2]): 60 | Plant response rating, Morningglory (morningglory; Preemergence, 500 g ai/ha): 100 | Plant response rating, Pigweed (redroot pigweed; Postemergence, 125 g ai/ha): 80 | Pigweed plant response rating (redroot pigweed; [1]): 90 | Pigweed plant response rating (redroot pigweed; [2]): 100 | Plant response rating, Pigweed (redroot pigweed; Preemergence, 500 g ai/ha): 100 | Blackgrass plant response rating (blackgrass; [3]): 100 | Blackgrass plant response rating (blackgrass; [4]): 100 | Plant response rating (0 to 100), Blackgrass (blackgrass; Postemergence, 31 g ai/ha): 0 | Plant response rating, Blackgrass (blackgrass; [5]): 30 | Plant response rating, Blackgrass (blackgrass; [6]): 30 | Plant response rating, Blackgrass (blackgrass; [7]): 100 | Blackgrass plant response rating (blackgrass; [8]): 100 | Bromegrass, Downy plant response rating (downy brome; [3]): 100 | Bromegrass, Downy plant response rating (downy brome; [4]): 100 | Plant response rating (0 to 100), Bromegrass, Downy (downy brome; Postemergence, 31 g ai/ha): 0 | Plant response rating, Bromegrass, Downy (downy brome; [5]): 10 | Plant response rating, Bromegrass, Downy (downy brome; [9]): 30 | Plant response rating, Bromegrass, Downy (downy brome; [6]): 75 | Plant response rating, Bromegrass, Downy (downy brome; [7]): 65 | Bromegrass, Downy plant response rating (downy brome; [8]): 100 | Foxtail, Green plant response rating (green foxtail; [3]): 100 | Foxtail, Green plant response rating (green foxtail; [4]): 100 | Plant response rating (0 to 100), Foxtail, Green (green foxtail; Postemergence, 31 g ai/ha): 5 | Plant response rating, Foxtail, Green (green foxtail; [5]): 50 | Plant response rating, Foxtail, Green (green foxtail; [9]): 80 | Plant response rating, Foxtail, Green (green foxtail; [6]): 90 | Plant response rating, Foxtail, Green (green foxtail; [7]): 90 | Foxtail, Green plant response rating (green foxtail; [8]): 100 | Oat, Wild plant response rating (wild oat; [3]): 98 | Oat, Wild plant response rating (wild oat; [4]): 98 | Plant response rating (0 to 100), Oat, Wild (wild oat; Postemergence, 31 g ai/ha): 0 | Plant response rating, Oat, Wild (wild oat; [5]): 40 | Plant response rating, Oat, Wild (wild oat; [9]): 80 | Plant response rating, Oat, Wild (wild oat; [6]): 85 | Plant response rating, Oat, Wild (wild oat; [7]): 85 | Oat, Wild plant response rating (wild oat; [8]): 100 | Bermudagrass plant response rating (bermudagrass; 62 g ai/ha, Preemergence, scale 0 to 100 (0 no effect, 100 complete control)): 100 | Bermudagrass plant response rating (bermudagrass; [4]): 100 | Plant response rating (0 to 100), Bermudagrass (bermudagrass; Postemergence, 31 g ai/ha): 0 | Plant response rating, Bermudagrass (bermudagrass; [5]): 0 | Plant response rating, Bermudagrass (bermudagrass; [9]): 70 | Plant response rating, Bermudagrass (bermudagrass; [6]): 90 | Plant response rating, Bermudagrass (bermudagrass; [7]): 100 | Bermudagrass plant response rating (bermudagrass; [8]): 100 | Cocklebur plant response rating (cocklebur; [3]): 0 | Plant response rating (0 to 100), Cocklebur (cocklebur; Postemergence, 31 g ai/ha): 0 | Plant response rating, Cocklebur (cocklebur; Postemergence, 62 g ai/ha): 0 | Plant response rating, Cocklebur (cocklebur; Postemergence, 125 g ai/ha): 0 | Plant response rating, Cocklebur (cocklebur; Postemergence, 250 g ai/ha): 0 | Cocklebur plant response rating (cocklebur; [8]): 90 | Cupgrass, Woolly plant response rating (woolly cupgrass; [3]): 40 | Cupgrass, Woolly plant response rating (woolly cupgrass; [4]): 100 | Plant response rating (0 to 100), Cupgrass, Woolly (woolly cupgrass; Postemergence, 31 g ai/ha): 0 | Plant response rating, Cupgrass, Woolly (woolly cupgrass; [5]): 0 | Plant response rating, Cupgrass, Woolly (woolly cupgrass; [9]): 0 | Plant response rating, Cupgrass, Woolly (woolly cupgrass; [6]): 40 | Plant response rating, Cupgrass, Woolly (woolly cupgrass; [7]): 40 | Cupgrass, Woolly plant response rating (woolly cupgrass; [8]): 100 | Kochia plant response rating (kochia; [3]): 100 | Kochia plant response rating (kochia; [4]): 100 | Plant response rating (0 to 100), Kochia (kochia; Postemergence, 31 g ai/ha): 0 | Plant response rating, Kochia (kochia; [5]): 0 | Plant response rating, Kochia (kochia; [9]): 0 | Plant response rating, Kochia (kochia; [6]): 0 | Plant response rating, Kochia (kochia; [7]): 100 | Kochia plant response rating (kochia; [8]): 100 | Plant response rating (0 to 100), Lambsquarters (lambsquarters; 31 g ai/ha): 0 | Plant response rating, Lambsquarters (lambsquarters; 62 g ai/ha): 0 | Plant response rating, Lambsquarters (lambsquarters; 125 g ai/ha): 50 | Plant response rating, Lambsquarters (lambsquarters; 250 g ai/ha): 50 | Nutsedge, Yellow plant response rating (yellow nutsedge; [3]): 40 | Nutsedge, Yellow plant response rating (yellow nutsedge; [4]): 50 | Plant response rating (0 to 100), Nutsedge, Yellow (yellow nutsedge; Postemergence, 31 g ai/ha): 0 | Plant response rating, Nutsedge, Yellow (yellow nutsedge; [5]): 0 | Plant response rating, Nutsedge, Yellow (yellow nutsedge; [9]): 0 | Plant response rating, Nutsedge, Yellow (yellow nutsedge; [6]): 0 | Plant response rating, Nutsedge, Yellow (yellow nutsedge; [7]): 0 | Nutsedge, Yellow plant response rating (yellow nutsedge; [8]): 60 | Plant response rating (0 to 100), Soybean (soybean; Postemergence, 31 g ai/ha): 20 | Plant response rating (0 to 100), Soybean (soybean; Postemergence, 62 g ai/ha): 50 | Plant response rating, Soybean (soybean; [9]): 60 | Plant response rating, Soybean (soybean; [6]): 90 | Plant response rating, Soybean (soybean; [7]): 5 | Plant response rating, Rice (rice; [10]): 0 | Plant response rating, Rice (rice; [11]): 45 | Plant response rating, Ducksalad (duck salad; [10]): 30 | Plant response rating, Ducksalad (duck salad; [11]): 100
